Test results as given in patent US20230108442A1, “NOVEL ANTIMALARIAL AGENT CONTAINING HETEROCYCLIC COMPOUND” (Eisai R&D Management Co., Ltd., priority 2020, published 2023).
pIC50: −log10 of the molar value. Where “and” joins values, the source holds several entries; their conditions need not be identical. Identical values can stand only once.

Assays:
[1] = tested on: Plasmodium falciparum strain 3D7 (chloroquine-sensitive); test: in vitro drug susceptibility test, parasite lactate dehydrogenase detection, strain 3D7; assay type: cell-based; settings: 72 hours incubation, pLDH absorbance at 660 nm, read-out: Pf_3D7 IC50
Experimental: (§1) Plasmodium falciparum strain 3D7 (chloroquine-sensitive) and K1 (chloroquine-resistant) were obtained from Kitasato University and used for testing antimalarial activities in vitro. The cultivation of P. falciparum was conducted according to Trager's method (Trager, W and Jensen and J., Human malaria parasites in continuous culture. Science, 193:673-677, 1976) with some modification. Precisely, parasites were kept in culture flasks with RPMI1640 medium supplemented with 10% human plasma and 2% fresh human erythrocytes and incubated at 37° C. with the gas condition of 5% CO2 and 5% 02. The parasitemia (percentage of infected erythrocytes to total erythrocytes) were kept within 0.25-10%. Culture medium were replaced and fresh erythrocytes were supplied every 2-3 days. Drug susceptibility test was conducted according to Desjardins's method (Desjardins, R. E., Canfield, C. J., Haynes, D. E. and Chulay, J. D., Quantitative assessment of antimalarial activity in vitro by a semiautomated microdilution technique. Antimicrob. Agents Chemother., 16:710-718, 1979) with some modification. The compounds I to IX and known antimalarial agents (chloroquine and artemisinin) were tested at the same time. Precisely, 199 micro L of parasite cultures (2% hematocrit and 0.75-1% parasitemia) and 1 micro L of compound solution serially diluted in DMSO were poured into every well in 96-well titer plates and final drug concentrations were set within 0.001-1 micro g/mL. The plates were kept at 37° C. with the gas condition of 5% CO2 and 5% O2 for 72 hours and then parasite growth was quantified with Makler's method to detect plasmodial lactate dehydrogenase (Makler, M. T., Rise, J. M., Williams, J. A., Bancroft, J. E., Piper, R. C., Gibbins, B. L. and Hinrichs, D. J., Parasite lactate dehydrogenase as an Assay for Plasmodium falciparum drug sensitivity. Am. J. Med. Hyg., 48:739-741, 1993) with some modification. Precisely, culture plate was kept in freezer overnight and then thawed at 37° C. to disrupt the erythrocytes and parasite cells. In the new 96-well titer plates, 100 micro L of enzyme reaction solution (110 mM Li-lactate, 0.5 mM acetylpyridine-adenine dinucleotide, 50 mM Tris (pH 7.5), 10 mM EDTA, 50 mM KCl and 15 g/L PEG6000) and 20 micro L of freeze-thaw culture were mixed in each well and then kept at room temperature for 30 minutes. The detection solution was prepared by mixing equal volume of 2 mg/mL nitro blue tetrazolium and 0.1 mg/mL phenazine ethosulfate and 20 micro L of the solution was added to each well. After the incubation at room temperature in the dark for 90 minutes, absorbance at 660 nm was analysed and IC50s were calculated from dose response curve.

[2] = tested on: Plasmodium falciparum strain K1 (chloroquine-resistant); test: in vitro drug susceptibility test, parasite lactate dehydrogenase detection, strain K1; assay type: cell-based; settings: 72 hours incubation, pLDH absorbance at 660 nm, read-out: Pf_K1 IC50
Experimental: as §1

[3] = tested on: Plasmodium falciparum Pf3D70087/N9; test: humanized murine malaria model, parasitemia by flow cytometry; assay type: in vivo; settings: oral, once daily for three days (I, V) or four days (II), start 72 h post infection, read seven days post infection
Experimental: The following pharmacological tests in the humanized murine malaria model were conducted using the compounds I, II and V at The Art of Discovery S.L. (Bizkaia, Spain). Briefly, mice engrafted with human erythrocytes were intravenously infected with parasitized red blood cells 72 h before drug treatment inception. The effect of treatment on parasitemia was assessed by measuring the percentage of infected erythrocytes in peripheral blood.
Plasmodium falciparum Pf3D70087/N9, the parasite strain used in this experiment, was described in reference (1). Immunodeficient female NSG (NOD-scid IL-2Rγnull) mice were engrafted with human erythrocytes to have a minimum of 40% of human erythrocytes circulating in peripheral blood during the whole experiment. Each mouse was intraperitoneally (i.p.) or intravenously (i.v.) inoculated with 1 mL (i.p.) or 0.7 mL (i.v.) of 50%-75% hematocrit erythrocyte suspension in RPMI1640 medium, 25% (vol/vol) decomplemented human serum, 3.1 mM hypoxanthine. Then humanized NSG mice were infected with peripheral blood from donor mice by intravenous injection of 0.3 mL of 1.17×10^8 parasitized-erythrocytes per ml suspension. Drug treatment was started after 72-h post infection. In the treatment, 10 ml/kg of compound solution were orally administered to each mouse, once daily for three or four days (three days for compounds I and V, four days for compound II, respectively). An analysis of the parasite population in peripheral blood was performed by flow cytometry as shown in reference (2) and the outcome was shown as the parasitemia expressed as the % of parasitized erythrocytes to the total erythrocytes in peripheral blood. Briefly, serial 2 micro L blood samples of peripheral blood from infected mice were stained with TER-119-Phycoerythrine (marker of murine erythrocytes) and SYTO-16 (nucleic acid dye) and then analyzed by flow cytometry. The therapeutic efficacies were expressed as ED90, the daily doses that reduce by 90% parasitemia to untreated control animals after seven days post infection.

Q: With `Nc1nc(N)c(-n2cnc(C3(C(F)(F)F)CC3)n2)cc1C(=O)NCc1ccc(OCC(F)(F)F)cc1` [VII, 2,6-diamino-N-(4-(2,2,2-trifluoroethoxy)benzyl)-5-(3-(1-(trifluoromethyl)cyclopropyl)-1H-1,2,4-triazol-1-yl)nicotinamide] as the compound, how does the IC50 [1] read?
A: Its IC50 is 0.016 µg/mL and 30 nM.

Q: And the IC50 [2]?
A: The IC50 was 0.021 µg/mL and 41 nM.

Q: How did the pIC50 [1] turn out when `Nc1nc(N)c(-n2cnc(C(F)(F)F)n2)cc1C(=O)NCc1ccc(OCC(F)(F)F)cc1` [IV, 2,6-diamino-N-(4-(2,2,2-trifluoroethoxy)benzyl)-5-(3-(trifluoromethyl)-1H-1,2,4-triazol-1-yl)nicotinamide] was run?
A: The pIC50 was 6.90.

Q: And the IC50 [2]?
A: Its IC50 is 0.031 µg/mL and 171 nM.

Q: With `C[C@@H](Oc1ccc(CNC(=O)c2cc(-n3cnc(C(F)F)n3)c(N)nc2N)cc1)C(F)(F)F` [V, (R)-2,6-diamino-5-(3-(difluoromethyl)-1H-1,2,4-triazol-1-yl)-N-(4-((1,1,1-trifluoropropan-2-yl)oxy)benzyl)nicotinamide] as the compound, how does the IC50 [1] read?
A: Its IC50 is 0.047 µg/mL and 99 nM.

Q: What about the IC50 [2] of the same compound?
A: Its IC50 is 0.075 µg/mL and 160 nM.

Q: What about the “ED90, daily dose that reduces parasitemia by 90% to untreated control animals” value [3] of the same compound?
A: The value was 6.2 mg/kg/day.

Q: What does the source list for `C[C@@H](Oc1ccc(CNC(=O)c2cc(-n3cnc(C(F)(F)F)n3)c(N)nc2N)cc1)C(F)(F)F` [compound I, (R)-2,6-diamino-5-(3-(trifluoromethyl)-1H-1,2,4-triazol-1-yl)-N-(4-((1,1,1-trifluoropropan-2-yl)oxy)benzyl)nicotinamide]?
A: IC50 [1]: 0.026 µg/mL; IC50 [2]: 0.043 µg/mL and 30 nM; ED90, daily dose that reduces parasitemia by 90% to untreated control animals [3]: 3.2 mg/kg/day

Q: What does the source list for `Nc1nc(N)c(-c2cnn(C(F)F)c2)cc1C(=O)NCc1ccc(OCC(F)(F)F)cc1F` [IX, 2,6-diamino-5-(1-(difluoromethyl)-1H-pyrazol-4-yl)-N-(2-fluoro-4-(2,2,2-trifluoroethoxy)benzyl)nicotinamide]?
A: IC50 [1]: 0.05 µg/mL and 113 nM; IC50 [2]: 0.083 µg/mL and 160 nM

Q: Which results are given for `C[C@@H](Oc1ccc(CNC(=O)c2cc(-n3cnc(C4(F)CC4)n3)c(N)nc2N)cc1)C(F)(F)F` [VIII, (R)-2,6-diamino-5-(3-(1-fluorocyclopropyl)-1H-1,2,4-triazol-1-yl)-N-(4-((1,1,1-trifluoropropan-2-yl)oxy)benzyl)nicotinamide]?
A: IC50 [1]: 0.02 µg/mL and 54 nM; IC50 [2]: 0.031 µg/mL and 64 nM

Q: How did the IC50 [1] turn out when `Cc1nn(C(F)F)cc1-c1cc(C(=O)NCc2ccc(O[C@H](C)C(F)(F)F)cc2)c(N)nc1N` [III, (R)-2,6-diamino-5-(1-(difluoromethyl)-3-methyl-1H-pyrazol-4-yl)-N-(4-((1,1,1-trifluoropropan-2-yl)oxy)benzyl)nicotinamide] was run?
A: Its IC50 is 0.078 µg/mL and 162 nM.

Q: And the IC50 [2]?
A: The IC50 was 0.121 µg/mL and 249 nM.

Q: How did the IC50 [1] turn out when `C[C@@H](Oc1ccc(CNC(=O)c2cc(-n3cnc(CC(F)(F)F)n3)c(N)nc2N)cc1)C(F)(F)F` [VI, (R)-2,6-diamino-5-(3-(2,2,2-trifluoroethyl)-1H-1,2,4-triazol-1-yl)-N-(4-((1,1,1-trifluoropropan-2-yl)oxy)benzyl)nicotinamide] was run?
A: The IC50 was 0.024 µg/mL and 48 nM.

Q: And the IC50 [2]?
A: The IC50 was 0.038 µg/mL and 75 nM.

Q: With `C[C@@H](Oc1ccc(CNC(=O)c2cc(-c3cnn(C(F)F)c3)c(N)nc2N)cc1)C(F)(F)F` [compound II, (R)-2,6-diamino-5-(1-(difluoromethyl)-1H-pyrazol-4-yl)-N-(4-((1,1,1-trifluoropropan-2-yl)oxy)benzyl)nicotinamide] as the compound, how does the IC50 [1] read?
A: The IC50 was 0.02 µg/mL and 42 nM.

Q: And the IC50 [2]?
A: The IC50 was 0.025 µg/mL and 53 nM.

Q: What about the “ED90, daily dose that reduces parasitemia by 90% to untreated control animals” value [3] of the same compound?
A: Its value is 5.0 mg/kg/day.
